Test results as given in patent US20240116985A1, “STAPLED PEPTIDES AND METHODS THEREOF” (priority 2020, published 2024).
In brackets after ≈: the same amount, converted by molar mass. Several values for one entry are separate records, joined by “and”; a condition that tells them apart may be missing. Equal entries are not always repeated. Where two headings read alike, the source gives them in different places.

What was measured:
[1] = target: T1, full-length beta-Catenin (Uniprot ID P35222) (Homo sapiens, UniProt P35222); test: Fluorescence polarization IC50 (beta-catenin / 5FAM-TCF4 10-53 competition); type: binding
T1 construct: 10 nM full-length beta-Catenin (Uniprot ID P35222)
T1 sequence (P35222 1-781): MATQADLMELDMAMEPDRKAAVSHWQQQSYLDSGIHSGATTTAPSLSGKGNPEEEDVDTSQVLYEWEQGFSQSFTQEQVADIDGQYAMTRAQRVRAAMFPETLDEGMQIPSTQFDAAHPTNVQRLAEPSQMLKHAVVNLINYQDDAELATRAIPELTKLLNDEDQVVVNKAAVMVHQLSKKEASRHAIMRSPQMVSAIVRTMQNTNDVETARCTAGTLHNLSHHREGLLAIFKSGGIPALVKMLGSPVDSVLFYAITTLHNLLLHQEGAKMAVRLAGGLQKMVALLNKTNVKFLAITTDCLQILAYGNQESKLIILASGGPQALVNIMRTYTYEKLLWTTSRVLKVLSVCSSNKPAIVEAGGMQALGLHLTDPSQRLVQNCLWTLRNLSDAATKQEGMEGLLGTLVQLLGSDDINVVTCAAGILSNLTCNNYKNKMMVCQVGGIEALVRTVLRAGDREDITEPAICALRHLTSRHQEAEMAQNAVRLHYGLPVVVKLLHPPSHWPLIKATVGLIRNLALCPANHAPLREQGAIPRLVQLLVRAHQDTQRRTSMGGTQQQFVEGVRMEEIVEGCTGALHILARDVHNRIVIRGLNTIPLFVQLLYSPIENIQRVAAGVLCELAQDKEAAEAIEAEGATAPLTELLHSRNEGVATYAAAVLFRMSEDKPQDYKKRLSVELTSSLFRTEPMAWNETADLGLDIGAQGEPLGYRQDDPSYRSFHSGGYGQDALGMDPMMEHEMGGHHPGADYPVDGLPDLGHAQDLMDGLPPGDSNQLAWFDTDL

[2] = CHI Log D procedure; type: physicochemical; details: for chromatographic logD: pH 7.4, CHI Log D
[3] = Solubility in PBS; type: physicochemical
Summary of the method: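 Read-out is the HPLC peak area of the supernatant from ultracentrifuged PBS solution, scaled against a 50 μM peptide DMSO injection; value reported as [(PBS area)/(DMSO area)]*50 uM.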

[4] = target: T2, beta-catenin/TCF4 engagement (Homo sapiens, UniProt P35222); test: Nano-BRET target engagement assay (B-cat-Halo & TCF4-Luc in HEK293 cells); type: cell-based
T2 construct: expressed in transfected cells; host or cells: HEK293
T2 sequence (P35222 1-781): T1 sequence (P35222 1-781)

[5] = system: TCF/LEF luciferase Reporter in DLD1 cells; test: TCF reporter assay (DLD1 TCF/LEF luciferase reporter, Bright-Glo); type: cell-based; details: for DLD1 TCF c2 BrightGlo % Inhibition: replicates
Summary of the method: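 Readouts: Bright-Glo luciferase for reporter signal and CellTiter-Glo for cell viability, with absolute IC50 derived. The reporter clone came from lentiviral TCF/LEF-luciferase transduction of DLD1 cells, seeded 5000 cells/well in RPMI with 4% FBS and exposed overnight to serially diluted compounds.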

[6] = absolute IC50, read-out: NanoBRET Abs IC50
[7] = read-out: DLD1 4% Abs IC50, DLD1 4%
[8] = absolute IC50, read-out: DLD1 reporter assay Abs IC50
[9] = first dose = 20 uM (plate map), 20 µM
[10] = third dose = 5 uM (plate map), 5 µM

| IC50 [4, 6] [µM] | IC50 ([4]; read-out: NanoBRET IC50) [µM] | IC50 ([1]; read-out: beta-Catenin FP IC50) [µM] | chromatographic logD [2] | Solubility ([3]; Solubility (uM)) [µM] | IC50 ([4]; read-out: NanoBRET Abs IC50) [µM] | IC50 [5, 7] [µM] | IC50 [5, 8] [µM] | SMILES | further results |
| --- | --- | --- | --- | --- | --- | --- | --- | --- | --- |
| 4.9 | 5.6 | – | – | – | – | – | – | CC(=O)N1CCC[C@]12CC=CCCCC1(CCCC=CCCCCCC[C@@](C)(C(=O)N[C@@H](Cc3ccccc3)C(=O)N[C@@H](Cc3csc4ccccc34)C(=O)N[C@@H](CCC(N)=O)C(N)=O)NC(=O)[C@H](CCC(N)=O)NC(=O)[C@H](Cc3ccccc3)NC(=O)[C@H](C)NC(=O)[C@H](C)NC(=O)[C@H](CCC(=O)O)NC(=O)[C@H](CC(=O)O)NC1=O)NC(=O)[C@H](CC(C)C)NC(=O)[C@H](CC(=O)O)NC2=O (stereo partly drawn) [I-505, Ac-PL3-Asp-Leu-B5-Asp-Glu-Ala-Ala-Phe-Gln-S8-Phe-BztA-Gln-NH2] | IC50 ([1]; fluorescence polarization, read-out: beta-Catenin FP IC50): 0.023 µM; IC50 ([1]; read-out: FP EC50): 0.023 µM; CHI Log D ([2]; pH 7.4): 2.259; Solubility [3]: 50 µM (≈ 94.2 µg/mL); IC50 ([4]; Abs IC50, read-out: NanoBRET Abs IC50): 4.9 µM; IC50 ([5]; Abs IC50, read-out: DLD1 reporter assay Abs IC50): 10.8 µM; IC50 ([5]; read-out: DLD1 4% Abs IC50, DLD1 4%, absolute IC50): 9.4 µM |
| – | 9 | 0.005 | 2.03 | 40 (≈ 76.2 µg/mL) | 9.6 | 9 | – | CC(=O)N1CCC[C@]12CC=CCCCC1(CCCC=CCCCOC(=O)N3CC[C@@](C(=O)N[C@@H](Cc4ccsc4)C(=O)N[C@@H](Cc4csc5ccccc45)C(=O)N[C@@H](CCC(N)=O)C(N)=O)(C3)NC(=O)[C@H](CCO)NC(=O)[C@H](Cc3ccccc3)NC(=O)[C@H](C)NC(=O)[C@H](C)NC(=O)[C@H](CC(=O)O)NC(=O)[C@H](CC(=O)O)NC1=O)NC(=O)[C@H](CC(C)(C)C)NC(=O)[C@H](CC(=O)O)NC2=O (stereo partly drawn) [I-803, Ac-PL3-Asp-Npg-B5-Asp-Asp-Ala-Ala-Phe-Hse-PyrS2-3Thi-BztA-Gln-NH2] | – |
| – | 5.3 | 0.005 | 2.27 | 24 (≈ 46.8 µg/mL) | 3.2 | – | 3.4 | CC(=O)N1CCC[C@]12CC=CCCCC1(CCCC=CCCCOC(=O)N3CC[C@@](C(=O)N[C@@H](Cc4ccsc4)C(=O)N[C@@H](Cc4csc5ccccc45)C(=O)N[C@@H](CCC(N)=O)C(N)=O)(C3)NC(=O)[C@H](Cc3ccccc3)NC(=O)[C@H](Cc3ccccc3)NC(=O)[C@H](C)NC(=O)[C@H](C)NC(=O)[C@H](CC(=O)O)NC(=O)[C@H](CC(=O)O)NC1=O)NC(=O)[C@H](CC(C)(C)C)NC(=O)[C@H](CC(=O)O)NC2=O (stereo partly drawn) [I-807, Ac-PL3-Asp-Npg-B5-Asp-Asp-Ala-Ala-Phe-Phe-PyrS2-3Thi-BztA-Gln-NH2] | – |
| – | 11.7 | 0.005 | 2.1 | 36 (≈ 68.6 µg/mL) | 6.1 | 11.3 | – | CC(=O)N1CCC[C@]12CC=CCCCC1(CCCC=CCCCOC(=O)N3CC[C@@](C(=O)N[C@@H](Cc4ccsc4)C(=O)N[C@@H](Cc4csc5ccccc45)C(=O)N[C@@H](CCC(N)=O)C(N)=O)(C3)NC(=O)[C@H]([C@@H](C)O)NC(=O)[C@H](Cc3ccccc3)NC(=O)[C@H](C)NC(=O)[C@H](C)NC(=O)[C@H](CC(=O)O)NC(=O)[C@H](CC(=O)O)NC1=O)NC(=O)[C@H](CC(C)(C)C)NC(=O)[C@H](CC(=O)O)NC2=O (stereo partly drawn) [I-809, Ac-PL3-Asp-Npg-B5-Asp-Asp-Ala-Ala-Phe-Thr-PyrS2-3Thi-BztA-Gln-NH2] | – |
| – | 12.7 | 0.007 | 2.1 | 47 (≈ 88.9 µg/mL) | 18.9 | 16.5 | – | CC(=O)N1CCC[C@]12CC=CCCCC1(CCCC=CCCCOC(=O)N3CC[C@@](C(=O)N[C@@H](Cc4ccsc4)C(=O)N[C@@H](Cc4csc5ccccc45)C(=O)N[C@H](C(N)=O)[C@@H](C)O)(C3)NC(=O)[C@H](CC(N)=O)NC(=O)[C@H](Cc3ccccc3)NC(=O)[C@H](C)NC(=O)[C@H](C)NC(=O)[C@H](CC(=O)O)NC(=O)[C@H](CC(=O)O)NC1=O)NC(=O)[C@H](CC(C)(C)C)NC(=O)[C@H](CC(=O)O)NC2=O (stereo partly drawn) [I-814, Ac-PL3-Asp-Npg-B5-Asp-Asp-Ala-Ala-Phe-Asn-PyrS2-3Thi-BztA-Thr-NH2] | – |
| – | 11.8 | 0.005 | 2.1 | 46 (≈ 86.3 µg/mL) | 15.4 | 10.3 | – | CC(=O)N1CCC[C@]12CC=CCCCC1(CCCC=CCCCOC(=O)N3CC[C@@](C(=O)N[C@@H](Cc4ccsc4)C(=O)N[C@@H](Cc4csc5ccccc45)C(=O)N[C@@H](CO)C(N)=O)(C3)NC(=O)[C@H](CC(N)=O)NC(=O)[C@H](Cc3ccccc3)NC(=O)[C@H](C)NC(=O)[C@H](C)NC(=O)[C@H](CC(=O)O)NC(=O)[C@H](CC(=O)O)NC1=O)NC(=O)[C@H](CC(C)(C)C)NC(=O)[C@H](CC(=O)O)NC2=O (stereo partly drawn) [I-815, Ac-PL3-Asp-Npg-B5-Asp-Asp-Ala-Ala-Phe-Asn-PyrS2-3Thi-BztA-Ser-NH2] | – |
| 13.9 | – | 0.005 | 2.35 | 11 (≈ 22.6 µg/mL) | – | – | 5.2 | CC(=O)N1CCC[C@]12CC=CCCCC1(CCCC=CCCCOC(=O)N3CC[C@@](C(=O)N[C@@H](Cc4ccccc4)C(=O)N[C@@H](Cc4csc5ccccc45)C(=O)N[C@@H](CCC(N)=O)C(N)=O)(C3)NC(=O)[C@H](Cc3ccccc3)NC(=O)[C@H](Cc3ccccc3)NC(=O)[C@H](C)NC(=O)[C@H](C)NC(=O)[C@H](CN(CC(=O)O)CC(F)(F)F)NC(=O)[C@H](CC(=O)O)NC1=O)NC(=O)[C@H](CC(C)(C)C)NC(=O)[C@H](CC(=O)O)NC2=O (stereo partly drawn) [I-988, Ac-PL3-Asp-Npg-B5-Asp-TfeGA-Ala-Ala-Phe-Phe-PyrS2-Phe-BztA-Gln-NH2] | DLD1 TCF c2 BrightGlo % Inhibition [5, 9]: 78.1% and 81.3% and 81.9%; DLD1 TCF c2 BrightGlo % Inhibition ([5]; 0.625 µM): 11.0% and 10.7% and 15.5%; DLD1 TCF c2 BrightGlo % Inhibition ([5]; 1.25 µM): 5.7% and 22.3% and 21.2%; DLD1 TCF c2 BrightGlo % Inhibition ([5]; 2.5 µM): 13.3% and 28.8% and 33.4%; DLD1 TCF c2 BrightGlo % Inhibition ([5]; 10 µM): 61.5% and 72.0% and 76.2%; DLD1 TCF c2 BrightGlo % Inhibition [5, 10]: 32.0% and 57.8% and 62.0% |
| 11.3 | – | 0.021 | 2.84 | 48 (≈ 96.1 µg/mL) | – | 3.6 | 10.8 | CC(=O)N1CCC[C@]12CC=CCCCC1(CCCC=CCCCCCC[C@@](C)(C(=O)N[C@@H](Cc3ccccc3Cl)C(=O)N[C@@H](Cc3csc4ccccc34)C(=O)N[C@@H](CCC(N)=O)C(N)=O)NC(=O)[C@H](CCO)NC(=O)[C@H](Cc3ccccc3)NC(=O)[C@H](C)NC(=O)[C@H](C)NC(=O)[C@H](CN(CC(=O)O)CC(F)(F)F)NC(=O)[C@H](CC(=O)O)NC1=O)NC(=O)[C@H](CC(C)(C)C)NC(=O)[C@H](CC(=O)O)NC2=O (stereo partly drawn) [I-996, Ac-PL3-Asp-Npg-B5-Asp-TfeGA-Ala-Ala-Phe-Hse-S8-2C1F-BztA-Gln-NH2] | – |
| 23.9 | – | 0.018 | 2.97 | 44 (≈ 86.9 µg/mL) | – | 1.9 | 8 | CC(=O)N1CCC[C@]12CC=CCCCC1(CCCC=CCCCCCC[C@@](C)(C(=O)N[C@@H](Cc3ccccc3Cl)C(=O)N[C@@H](Cc3csc4ccccc34)C(=O)N[C@@H](CCO)C(N)=O)NC(=O)[C@H](CCO)NC(=O)[C@H](Cc3ccccc3)NC(=O)[C@H](C)NC(=O)[C@H](C)NC(=O)[C@H](CN(CC(=O)O)CC(F)(F)F)NC(=O)[C@H](CC(=O)O)NC1=O)NC(=O)[C@H](CC(C)(C)C)NC(=O)[C@H](CC(=O)O)NC2=O (stereo partly drawn) [I-1000, Ac-PL3-Asp-Npg-B5-Asp-TfeGA-Ala-Ala-Phe-Hse-S8-2C1F-BztA-Hse-NH2] | DLD1 TCF c2 BrightGlo % Inhibition [5, 9]: 79.5% (2×) and 79.7%; DLD1 TCF c2 BrightGlo % Inhibition ([5]; 0.625 µM): −3.4% and 2.4% and 4.9%; DLD1 TCF c2 BrightGlo % Inhibition ([5]; 1.25 µM): −0.6% and −1.2% and 1.5%; DLD1 TCF c2 BrightGlo % Inhibition ([5]; 2.5 µM): 5.5% and 10.2% and 12.4%; DLD1 TCF c2 BrightGlo % Inhibition ([5]; 10 µM): 57.0% and 59.8% and 61.4%; DLD1 TCF c2 BrightGlo % Inhibition [5, 10]: 25.7% and 29.9% and 32.3% |
